Results reported in the NIST ThermoML archive (doi:10.1016/j.jct.2017.07.004).
± gives the expanded uncertainty stated by the source.

Experiment: xn = mol fraction of the nth substance listed
Conditions: 100 kPa, Liquid; for viscosity: Concentric cylinders viscometry; for mass density: Vibrating tube method

CCC=O [propanal] + CC(C)O
Conditions	mass density [kg/m3]	viscosity [mPa·s]
293.15 K, x1 = 0.0812	792 ± 1	2.37 ± 0.19
293.15 K, x1 = 0.16	797.2 ± 1	2.3 ± 0.18
293.15 K, x1 = 0.24	801.6 ± 1	2.2 ± 0.18
293.15 K, x1 = 0.3499	806.4 ± 1	2 ± 0.16
293.15 K, x1 = 0.4402	809.2 ± 1	1.81 ± 0.15
293.15 K, x1 = 0.5619	811.4 ± 1	1.52 ± 0.12
293.15 K, x1 = 0.6483	811.8 ± 1	1.3 ± 0.1
293.15 K, x1 = 0.74	811.3 ± 1	1.06 ± 0.09
293.15 K, x1 = 0.85	809.1 ± 1	0.76 ± 0.06
293.15 K, x1 = 0.94	806 ± 1	0.51 ± 0.04
293.15 K, x1 = 1	802.4 ± 1	0.34 ± 0.03
298.15 K, x1 = 0.0812	786.6 ± 1	2.04 ± 0.16
298.15 K, x1 = 0.16	791.5 ± 1	1.97 ± 0.16
298.15 K, x1 = 0.24	795.9 ± 1	1.88 ± 0.15
298.15 K, x1 = 0.3499	800.4 ± 1	1.72 ± 0.14
298.15 K, x1 = 0.4402	803 ± 1	1.56 ± 0.13
298.15 K, x1 = 0.5619	804.9 ± 1	1.32 ± 0.11
298.15 K, x1 = 0.6483	805 ± 1	1.13 ± 0.09
298.15 K, x1 = 0.74	804.1 ± 1	0.93 ± 0.08
298.15 K, x1 = 0.85	802.3 ± 1	0.67 ± 0.05
298.15 K, x1 = 0.94	799.1 ± 1	0.46 ± 0.04
298.15 K, x1 = 1	796.2 ± 1	0.33 ± 0.03
303.15 K, x1 = 0.0812	781.5 ± 1	1.76 ± 0.14
303.15 K, x1 = 0.16	786.2 ± 1	1.69 ± 0.14
303.15 K, x1 = 0.24	790 ± 1	1.61 ± 0.13
303.15 K, x1 = 0.3499	794.5 ± 1	1.47 ± 0.12
303.15 K, x1 = 0.4402	797.1 ± 1	1.33 ± 0.11
303.15 K, x1 = 0.5619	798.8 ± 1	1.13 ± 0.09
303.15 K, x1 = 0.6483	798.8 ± 1	0.97 ± 0.08
303.15 K, x1 = 0.74	797.8 ± 1	0.8 ± 0.06
303.15 K, x1 = 0.85	795.8 ± 1	0.59 ± 0.05
303.15 K, x1 = 0.94	792.6 ± 1	0.42 ± 0.03
303.15 K, x1 = 1	790.3 ± 1	0.31 ± 0.03
308.15 K, x1 = 0.0812	776.7 ± 1	1.52 ± 0.12
308.15 K, x1 = 0.16	780.9 ± 1	1.46 ± 0.12
308.15 K, x1 = 0.24	784.3 ± 1	1.38 ± 0.11
308.15 K, x1 = 0.3499	788.2 ± 1	1.26 ± 0.1
308.15 K, x1 = 0.4402	790.5 ± 1	1.14 ± 0.09
308.15 K, x1 = 0.5619	792 ± 1	0.97 ± 0.08
308.15 K, x1 = 0.6483	792 ± 1	0.83 ± 0.07
308.15 K, x1 = 0.74	791.4 ± 1	0.69 ± 0.06
308.15 K, x1 = 0.85	789.5 ± 1	0.52 ± 0.04
308.15 K, x1 = 0.94	786.4 ± 1	0.39 ± 0.03
308.15 K, x1 = 1	784.5 ± 1	0.3 ± 0.03
313.15 K, x1 = 0.0812	771.8 ± 1	1.31 ± 0.11
313.15 K, x1 = 0.16	775.5 ± 1	1.24 ± 0.1
313.15 K, x1 = 0.24	778.8 ± 1	1.17 ± 0.09
313.15 K, x1 = 0.3499	782.4 ± 1	1.06 ± 0.09
313.15 K, x1 = 0.4402	784.3 ± 1	0.96 ± 0.08
313.15 K, x1 = 0.5619	785.7 ± 1	0.83 ± 0.07
313.15 K, x1 = 0.6483	785.8 ± 1	0.72 ± 0.06
313.15 K, x1 = 0.74	785.3 ± 1	0.61 ± 0.05
313.15 K, x1 = 0.85	783.3 ± 1	0.47 ± 0.04
313.15 K, x1 = 0.94	780.8 ± 1	0.36 ± 0.03
313.15 K, x1 = 1	779 ± 1	0.28 ± 0.02
318.15 K, x1 = 0.0812	766.8 ± 1	1.14 ± 0.09
318.15 K, x1 = 0.16	770.2 ± 1	1.08 ± 0.09
318.15 K, x1 = 0.24	773.1 ± 1	1.01 ± 0.08
318.15 K, x1 = 0.3499	776.5 ± 1	0.91 ± 0.07
318.15 K, x1 = 0.4402	778.4 ± 1	0.83 ± 0.07
318.15 K, x1 = 0.5619	779.7 ± 1	0.71 ± 0.06
318.15 K, x1 = 0.6483	779.7 ± 1	0.63 ± 0.05
318.15 K, x1 = 0.74	778.9 ± 1	0.53 ± 0.04
318.15 K, x1 = 0.85	777.2 ± 1	0.42 ± 0.03
318.15 K, x1 = 0.94	775.4 ± 1	0.33 ± 0.03
318.15 K, x1 = 1	773.5 ± 1	0.27 ± 0.02
323.15 K, x1 = 0.0812	761.6 ± 1	0.99 ± 0.08
323.15 K, x1 = 0.16	764.6 ± 1	0.94 ± 0.08
323.15 K, x1 = 0.24	767.1 ± 1	0.87 ± 0.07
323.15 K, x1 = 0.3499	770 ± 1	0.79 ± 0.06
323.15 K, x1 = 0.4402	771.7 ± 1	0.72 ± 0.06
323.15 K, x1 = 0.5619	772.8 ± 1	0.62 ± 0.05
323.15 K, x1 = 0.6483	772.8 ± 1	0.55 ± 0.04
323.15 K, x1 = 0.74	772.4 ± 1	0.47 ± 0.04
323.15 K, x1 = 0.85	770.9 ± 1	0.38 ± 0.03
323.15 K, x1 = 0.94	769.4 ± 1	0.3 ± 0.03
323.15 K, x1 = 1	768.2 ± 1	0.25 ± 0.02
